What was measured:
[1] = system: Yellow foxtail grass (YF); assay: Pre-emergence herbicide test; type: in vivo, Setaria glauca; details: Setaria, 336 h, two weeks after treatment
Summary of the method: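 Seeds surface-sown in potting soil one day before spraying; compounds applied pre-emergence at 8 or 4 lbs/acre in 38 gallons/acre spray. Pots held in greenhouse with sub-irrigation only. Injury or control rated visually two weeks after treatment.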

Amaranth pigweed (PW) [2] = assay: Pre-emergence herbicide test; type: in vivo, Amaranthus retroflexus; details: 336 h, two weeks after treatment
Summary of the method: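 Pigweed was surface-seeded in potted soil one day before spraying at 8 lbs compound per acre, or 4 lbs/acre, in 38 gallons per acre. Pots were kept in the greenhouse with sub-irrigation only; injury or control was rated visually two weeks after treatment.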

Johnson grass (JG) [3] = assay: Post-emergence herbicide test; type: in vivo, Sorgum helepense; details: Sorghum halepense, 336 h, two weeks after treatment
Summary of the method: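 Greenhouse pot-grown seedlings sprayed post-emergence at 8 lbs compound per acre (some at 4 lbs/acre) in 38 gallons per acre spray volume. Sub-irrigated thereafter. Injury/control rated visually two weeks after treatment.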

Barnyard grass (BG) [4] = assay: Pre-emergence herbicide test; type: in vivo; details: Echinochloa crus-galli, 336 h, two weeks after treatment
Summary of the method: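 Barnyard grass surface-seeded in potting soil and sprayed pre-emergence one day after seeding, at 8 or 4 lb compound/acre in 38 gal/acre spray volume. Pots kept in greenhouse with sub-irrigation only; injury or control rated visually two weeks after treatment.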

Turnip (TP) [5] = assay: Pre-emergence herbicide test; type: in vivo, Brassica sp.; details: Brassica rapa, pre-emergence, 336 h, two weeks after treatment
Summary of the method: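 Turnip (Brassica sp.) seeds were surface sown in 3' plastic pots of potting soil, covered with a thin layer of screened soil, and sub-irrigated in greenhouse trays. Pots were seeded one day ahead of treatment, sprayed pre-emergence under a hood with a fixed nozzle and moving belt, then kept in the greenhouse.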

Corn (CN) [6] = assay: Post-emergence herbicide test; type: in vivo; details: Zea mays, 336 h, two weeks after treatment
Summary of the method: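 Greenhouse seedlings grown in potting soil and sprayed post-emergence at 8 lbs compound/acre (formulations also made for 4 lbs/acre) in 38 gallons/acre spray volume. Watering by sub-irrigation only. Injury or control rated visually two weeks after treatment.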

[7] = system: variety of crops and weed species; assay: Pre- and post-emergence herbicide tests, overall assessment of Tables III-VI; type: in vivo; details: data of Tables III-VI
Summary of the method: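 Crops and weeds grown in potting soil were sprayed at 8 lbs. compound per acre in 38 gallons per acre, pre-emergence pots seeded one day before treatment. Injury or control was visually rated two weeks after treatment.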

Crabgrass (CG) [8] = assay: Post-emergence herbicide test; type: in vivo, Digitaria sanquinalis; details: Digitaria sanguinalis, post-emergence, 336 h, two weeks after treatment
Summary of the method: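 Crabgrass (Digitaria sanquinalis) was surface seeded individually in 3' plastic pots of potting soil, covered with screened soil, and watered by sub-irrigation in greenhouse trays. Planting was staggered so seedlings reached the target stage together. Post-emergence sprays were applied in a hood with a removable belt and fixed nozzle, and control was visually rated two weeks after treatment.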

Corn (CN) [9] = assay: Pre-emergence herbicide test; type: in vivo; details: Zea mays, 336 h, two weeks after treatment
Summary of the method: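 Four corn seeds per pot, sown at seed-diameter depth one day before spraying, got soil surface treatment at 8 lbs/acre (4 lbs/acre formulations also prepared) in 38 gallons/acre. Pots were greenhouse-held with sub-irrigation only. Injury or control was scored visually two weeks after treatment.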

Cotton (CT) [10] = assay: Post-emergence herbicide test; type: in vivo, Gossypium hirsutum var. DPL smooth leaf; details: Gossypium hirsutum, post-emergence, 336 h, two weeks after treatment
Summary of the method: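 Cotton (Gossypium hirsutum var. DPL smooth leaf) was grown in 3' plastic pots of potting soil, four seeds per pot, planted at a depth equal to the seed diameter and watered by sub-irrigation. At the stage of expanded cotyledons with the first true leaf 1' long, plants were sprayed post-emergence in a hood with a fixed nozzle over a moving belt. Percent control was rated visually two weeks later.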

Turnip (TP) [11] = assay: Post-emergence herbicide test; type: in vivo, Brassica sp.; details: Brassica rapa, post-emergence, 336 h, two weeks after treatment
Summary of the method: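 A greenhouse post-emergence herbicide test on turnip. Seeds were sown on the surface of potting soil in 3' plastic pots, lightly covered with screened soil and watered from below. Planting was timed so seedlings had 1 or 2 true leaves above the cotyledons at spraying, done in a hood with a fixed nozzle. Control or injury was scored by eye after two weeks.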

Cotton (CT) [12] = assay: Pre-emergence herbicide test; type: in vivo, Gossypium hirsutum var. DPL smooth leaf; details: Gossypium hirsutum, 336 h, two weeks after treatment
Summary of the method: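 Crop and weed species seeded one day before treatment, then sprayed pre-emergence at 8 lbs actual compound per acre (also 4 lbs/acre formulations) in 38 gallons per acre. Pots kept in greenhouse with sub-irrigation only; injury or control visually rated two weeks after treatment.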

[13] = system: Yellow foxtail grass (YF); assay: Post-emergence herbicide test; type: in vivo, Setaria glauca; details: Setaria, 336 h, two weeks after treatment
Summary of the method: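 Potted seedlings grown in greenhouse, planting staggered to reach the target stage together, then sprayed post-emergence at 8 lbs actual compound/acre in 38 gallons/acre (4 lbs/acre formulations also prepared). Sub-irrigated afterwards. Injury or control rated visually two weeks after treatment.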

Bean (BN) [14] = assay: Pre-emergence herbicide test; type: in vivo, Phaseolus vulgaris var. Black Valentine; details: Phaseolus vulgaris, 336 h, two weeks after treatment
Summary of the method: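 Black Valentine bean was seeded in potting soil one day before spraying. Compound was applied pre-emergence at 8 lbs/acre (also 4 lbs/acre) in 38 gallons per acre. Plants were sub-irrigated and injury or control was rated visually after two weeks.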

Bean (BN) [15] = assay: Post-emergence herbicide test; type: in vivo, Phaseolus vulgaris var. Black Valentine; details: Phaseolus vulgaris, post-emergence, 336 h, two weeks after treatment
Summary of the method: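 Snapbean (Phaseolus vulgaris var. Black Valentine) was tested post-emergence. Four seeds were sown in 3' plastic pots of potting soil at a depth equal to the seed diameter, then sub-irrigated in greenhouse trays. Planting dates were staggered so plants were sprayed once primary leaves had expanded, with the growing point at the primary leaf nodes.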

Johnson grass (JG) [16] = assay: Pre-emergence herbicide test; type: in vivo, Sorgum helepense; details: Sorghum halepense, 336 h, two weeks after treatment
Summary of the method: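 Pots seeded one day before spraying; compound applied pre-emergence at 8 lbs/acre (or 4 lbs/acre) in 38 gallons/acre spray volume. Sub-irrigated in greenhouse; injury/control rated visually two weeks after treatment.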

Barnyard grass (BG) [17] = assay: Post-emergence herbicide test; type: in vivo; details: Echinochloa crus-galli, 336 h, two weeks after treatment
Summary of the method: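 Greenhouse pot-grown barnyard grass seedlings sprayed post-emergence at 8 lbs active compound per acre (some at 4 lbs/acre) in 38 gallons per acre, then sub-irrigated. Injury or control rated visually two weeks after treatment.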

Amaranth pigweed (PW) [18] = assay: Post-emergence herbicide test; type: in vivo, Amaranthus retroflexus; details: 336 h, two weeks after treatment
Summary of the method: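 Pot-grown pigweed was sprayed post-emergence at the 1–2 true-leaf stage with compound at rates equivalent to 8 lbs per acre (formulations also prepared for 4 lbs/acre) in 38 gallons per acre, using a hood with fixed nozzle. Plants were sub-irrigated in the greenhouse, and injury or control was rated visually two weeks after treatment.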

Crabgrass (CG) [19] = assay: Pre-emergence herbicide test; type: in vivo, Digitaria sanquinalis; details: Digitaria sanguinalis, pre-emergence, 336 h, two weeks after treatment
Summary of the method: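 Crabgrass (Digitaria sanquinalis) was surface seeded in 3' plastic pots of potting soil, covered with screened soil, and watered by sub-irrigation in greenhouse trays. Pots were seeded one day before spraying in a hood with a moving belt and fixed nozzle. Plants stayed in the greenhouse on sub-irrigation, and pre-emergence control was rated visually two weeks after treatment.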

CNC(=O)N(C)c1nnc(C(F)(F)F)s1 [Example 36]
pest or weed control at 2241.7 g/ha ([1]; 2 lb/acre): 100%
pest or weed control at 4483.4 g/ha ([1]; 4 lb/acre): 90%
pest or weed control at 8966.8 g/ha ([1]; 8 lb/acre): 90%
pest or weed control at 2241.7 g/ha (Amaranth pigweed (PW) [2]; 2 lb/acre): 90%
pest or weed control at 4483.4 g/ha (Amaranth pigweed (PW) [2]; 4 lb/acre): 100%
pest or weed control at 8966.8 g/ha (Amaranth pigweed (PW) [2]; 8 lb/acre): 90%
pest or weed control (Johnson grass (JG) [3]; 2 lb/acre): 80%
pest or weed control at 4483.4 g/ha (Johnson grass (JG) [3]; 4 lb/acre): 80%
pest or weed control at 8966.8 g/ha (Johnson grass (JG) [3]; 8 lb/acre): 100%
pest or weed control at 2241.7 g/ha (Barnyard grass (BG) [4]; 2 lb/acre): 80%
pest or weed control at 4483.4 g/ha (Barnyard grass (BG) [4]; 4 lb/acre): 100%
pest or weed control at 8966.8 g/ha (Barnyard grass (BG) [4]; 8 lb/acre): 90%
pest or weed control at 2241.7 g/ha (Turnip (TP) [5]; 2 lb/acre): 100%
pest or weed control at 4483.4 g/ha (Turnip (TP) [5]; 4 lb/acre): 100%
pest or weed control at 8966.8 g/ha (Turnip (TP) [5]; 8 lb/acre): 100%
pest or weed control (Corn (CN) [6]; 2 lb/acre): 70%
pest or weed control at 4483.4 g/ha (Corn (CN) [6]; 4 lb/acre): 100%
pest or weed control at 8966.8 g/ha (Corn (CN) [6]; 8 lb/acre): 100%
herbicidal effectiveness / selectivity, in words [7]: extremely effective when applied to a variety of crops and weed species
pest or weed control (Crabgrass (CG) [8]; 2 lb/acre): 70%
pest or weed control at 4483.4 g/ha (Crabgrass (CG) [8]; 4 lb/acre): 90%
pest or weed control at 8966.8 g/ha (Crabgrass (CG) [8]; 8 lb/acre): 100%
pest or weed control at 2241.7 g/ha (Corn (CN) [9]; 2 lb/acre): 30%
pest or weed control at 4483.4 g/ha (Corn (CN) [9]; 4 lb/acre): 40%
pest or weed control at 8966.8 g/ha (Corn (CN) [9]; 8 lb/acre): 30%
pest or weed control at 2241.7 g/ha (Cotton (CT) [10]; 2 lb/acre): 100%
pest or weed control at 4483.4 g/ha (Cotton (CT) [10]; 4 lb/acre): 100%
pest or weed control at 8966.8 g/ha (Cotton (CT) [10]; 8 lb/acre): 100%
pest or weed control at 2241.7 g/ha (Turnip (TP) [11]; 2 lb/acre): 100%
pest or weed control at 4483.4 g/ha (Turnip (TP) [11]; 4 lb/acre): 100%
pest or weed control at 8966.8 g/ha (Turnip (TP) [11]; 8 lb/acre): 100%
pest or weed control at 2241.7 g/ha (Cotton (CT) [12]; 2 lb/acre): 80%
pest or weed control at 4483.4 g/ha (Cotton (CT) [12]; 4 lb/acre): 90%
pest or weed control at 8966.8 g/ha (Cotton (CT) [12]; 8 lb/acre): 90%
pest or weed control ([13]; 2 lb/acre): 100%
pest or weed control at 4483.4 g/ha ([13]; 4 lb/acre): 100%
pest or weed control at 8966.8 g/ha ([13]; 8 lb/acre): 100%
pest or weed control at 2241.7 g/ha (Bean (BN) [14]; 2 lb/acre): 90%
pest or weed control at 4483.4 g/ha (Bean (BN) [14]; 4 lb/acre): 80%
pest or weed control at 8966.8 g/ha (Bean (BN) [14]; 8 lb/acre): 100%
pest or weed control at 2241.7 g/ha (Bean (BN) [15]; 2 lb/acre): 100%
pest or weed control at 4483.4 g/ha (Bean (BN) [15]; 4 lb/acre): 100%
pest or weed control at 8966.8 g/ha (Bean (BN) [15]; 8 lb/acre): 100%
pest or weed control at 2241.7 g/ha (Johnson grass (JG) [16]; 2 lb/acre): 70%
pest or weed control at 4483.4 g/ha (Johnson grass (JG) [16]; 4 lb/acre): 40%
pest or weed control at 8966.8 g/ha (Johnson grass (JG) [16]; 8 lb/acre): 90%
pest or weed control at 2241.7 g/ha (Barnyard grass (BG) [17]; 2 lb/acre): 100%
pest or weed control at 4483.4 g/ha (Barnyard grass (BG) [17]; 4 lb/acre): 100%
pest or weed control at 8966.8 g/ha (Barnyard grass (BG) [17]; 8 lb/acre): 100%
pest or weed control at 2241.7 g/ha (Amaranth pigweed (PW) [18]; 2 lb/acre): 100%
pest or weed control at 4483.4 g/ha (Amaranth pigweed (PW) [18]; 4 lb/acre): 100%
pest or weed control at 8966.8 g/ha (Amaranth pigweed (PW) [18]; 8 lb/acre): 100%
pest or weed control (Crabgrass (CG) [19]; 2 lb/acre): 100%
pest or weed control at 4483.4 g/ha (Crabgrass (CG) [19]; 4 lb/acre): 90%
pest or weed control at 8966.8 g/ha (Crabgrass (CG) [19]; 8 lb/acre): 90%
